Measured values: US5206234A, “Benzolactam analogs as antagonists of CCK” (priority 1991, dated 1993)

Tests used:
[1] = molecular target: T1, CCK receptor (Brain, cerebral cortex) (Cavia porcellus, UniProt H0VZC5); experiment: CCK Receptor Binding (Brain), inhibition of 125I-CCK-33 binding; design: species or system guinea pig (Male Hartley); conditions: head prints ^25 I-CCK; guinea pig cerebral cortex
T1 construct: Cerebral cortex was dissected and used as a receptor source; from tissue; host or cells: cerebral cortex membranes of male Hartley guinea pigs
T1 sequence (H0VZC5 1-426): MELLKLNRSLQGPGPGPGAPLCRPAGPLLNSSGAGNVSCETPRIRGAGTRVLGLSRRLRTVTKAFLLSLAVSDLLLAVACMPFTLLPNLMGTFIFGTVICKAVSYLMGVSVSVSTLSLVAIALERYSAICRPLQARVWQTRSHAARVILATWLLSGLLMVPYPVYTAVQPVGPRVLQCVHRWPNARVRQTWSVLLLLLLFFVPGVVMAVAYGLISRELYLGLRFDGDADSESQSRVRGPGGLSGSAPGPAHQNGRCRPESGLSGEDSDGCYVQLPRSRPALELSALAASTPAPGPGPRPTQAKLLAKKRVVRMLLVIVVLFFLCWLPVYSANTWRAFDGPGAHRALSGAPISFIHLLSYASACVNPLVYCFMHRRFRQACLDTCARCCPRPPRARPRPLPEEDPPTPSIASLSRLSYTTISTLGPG
Protocol: CCK-33 was radiolabeled and the binding was performed according to the description for the pancreas method with modifications according to Saito et al., J. Neurochem. 37:483-490, 1981.
Male Hartley guinea pigs (300-500 g) were sacrificed by decapitation and the brains were removed and placed in ice-cold 50 mM Tris HCl plus 7.58 g/l Trizma-7.4 (pH 7.4 at 25° C.). Cerebral cortex was dissected and used as a receptor source. Each gram of fresh guinea pig brain tissue was homogenized in 10 ml of Tris/Trizma buffer with a Brinkman polytron PT-10. The homogenates were centrifuged at 42,000 g for 15 minutes. Pellets were resuspended in Tris Buffer, centrifuged as above and resuspended in 200 volumes of binding assay buffer (10 mM N-2-hydroxyethyl-piperazine-N'-2-ethane sulfonic acid (HEPES), 5 mM MgCl2, 0.25 mg/ml bacitracin, 1 mM ethylene glycol-bis-(β-aminoethylether-N,N'-tetraacetic acid) (EGTA), and 0.4% bovine serum albumin (BSA)). […] All assays were run in duplicate or triplicate. The reaction mixtures were incubated at 25° C. for 2 hours and centrifuged in a Beckman Microfuge (4 minutes) immediately after adding 1 ml of ice-cold incubation buffer. The supernatant was aspirated and discarded, pellets were counted with a Beckman gamma 5000.

[2] = molecular target: T2, CCK receptor (Pancreas) (Rattus norvegicus, UniProt P30551); experiment: CCK Receptor Binding (Pancreas), inhibition of 125I-CCK-33 binding; design: species or system rat (Male Sprague-Dawley); conditions: for IC50: 125I-CCK-33, rat pancreas membranes; for Effect on the 125I-CCK receptor binding assay: added as protease inhibitors
T2 construct: The whole pancreas was dissected free of fat tissue and was homogenized; from tissue; host or cells: pancreas membranes of male Sprague-Dawley rats
T2 sequence (P30551 1-444): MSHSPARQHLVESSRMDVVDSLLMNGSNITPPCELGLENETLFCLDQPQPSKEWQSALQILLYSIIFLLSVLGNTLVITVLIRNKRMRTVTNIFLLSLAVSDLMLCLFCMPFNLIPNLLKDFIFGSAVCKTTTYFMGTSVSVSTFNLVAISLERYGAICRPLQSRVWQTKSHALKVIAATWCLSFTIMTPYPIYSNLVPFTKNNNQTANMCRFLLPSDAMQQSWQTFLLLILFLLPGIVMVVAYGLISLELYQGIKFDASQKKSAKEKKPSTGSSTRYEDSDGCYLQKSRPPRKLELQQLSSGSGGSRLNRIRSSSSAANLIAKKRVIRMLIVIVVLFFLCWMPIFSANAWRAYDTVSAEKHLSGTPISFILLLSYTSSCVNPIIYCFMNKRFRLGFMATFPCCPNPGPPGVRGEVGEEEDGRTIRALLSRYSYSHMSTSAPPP
Protocol: CCK-33 was radiolabeled with ^125 I-Bolton Hunter reagent (2000 Ci/mmole) as described by Sankara et al. (J. Biol. Chem. 254: 9349-9351, 1979). Receptor binding was performed according to Innis and Snyder (Proc. Natl. Acad. Sci. 77, 6917-6921, 1980) with the minor modification of adding the additional protease inhibitors, phenylmethane sulfonyl fluoride and o-phenanthroline. The latter two compounds have no effect on the ^125 I-CCK receptor binding assay.
Male Sprague-Dawley rats (200-350 g) were sacrificed by decapitation. The whole pancreas was dissected free of fat tissue and was homogenized in 20 volumes of ice-cold 50 mM Tris HCl (pH 7.7 at 25° C.) with a Brinkmann Polytron PT 10. The homogenates were centrifuged at 48,000 g for 10 min. Pellets were resuspended in Tris Buffer, centrifuged as above and resuspended in 200 volumes of binding assay buffer (50 mM Tris HCl, pH 7.7 at 25° C., 5 mM dithiothrietol, 0.1 mM bacitracin, 1.2 mM phenylmethane sulfonyl fluoride and 0.5 mM o-phenanthroline). […] All assays were run in duplicate or triplicate. The reaction mixtures were incubated at 37° C. for 30 minutes and centrifuged in a Beckman Microfuge (4 minutes) immediately after adding 1 ml of ice-cold incubation buffer. The supernatant was aspirated and discarded, pellets were counted with a Beckman gamma 5000. For Scatchard analysis (Ann. N.Y. Acad. Sci. 51: 660, 1949), ^125 I-CCK-33 was progressively diluted with increasing concentrations of CCK-33.
A Ki value (dissociation constant of inhibitor) of the compounds of Formula I was estimated.

[3] = system: anxiety (mice); experiment: Black/white exploration test (anxiolytic activity); assay type: in vivo, mouse (male DBA2)
Description: The black/white exploration test [Crawley et al. Pharmacology, Biochemistry and Behav. 13, 167 (1980)] is a simple animal model of anxiety. Rodents placed in a two compartment box which consists of a brightly lit, white painted side and a dimly lit, black painted side, display a marked preference for the black side of the apparatus. This behavior is caused by the aversive properties of the brightly lit, white painted section. Classical anxiolytic drugs [such as diazepam, see Crawley, supra] and novel anxiolytic drugs [such as 5HT3 antagonists, see Jones et al. Br. J. Pharm.
A. Naive male DBA2 mice (25-30) were housed on a reversed light/dark cycle and tested during the dark phase of the cycle under dim red light. The apparatus consisted of an open topped box (40 cm long×27 cm wide×27 cm high) divided into a small area (2/5) and a large area (3/5) by a partition that extended 20 cm above the walls. There was a 7.5×7.5 cm opening in the partition at floor level. The small compartment was painted black and the large compartment white. The floor of each compartment was marked into 9 cm squares. The white compartment was illuminated by a 100 W tungsten bulb 17 cm above the box and the black compartment by a similarly placed 60 W red bulb.
Animals that had been injected with drug or vehicle were placed individually into the centre of the white area and their behavior observed during a 5 minute period by remote video recording. Four behavioral parameters were recorded every minute: the number of exploratory rears in the white and black sections, the number of line crossings in the black and white sections, the number of transitions between the two sections and the time spent in the black and white sections. Animals were tested in treatment groups of 8-10 and vehicle controls were run on each test day. Data were analysed by ANOVA and Dunnetts test.

[4] = molecular target: T3, Gastrin receptor (Gastric Glands) (Cavia porcellus, UniProt H0VZC5); experiment: Gastrin Receptor Binding in Guinea Pig Gastric Glands; design: species or system guinea pig (male Hartley); conditions: head prints ^25 I-Gastrin, read-out: Receptor binding IC50, 125I-Gastrin Gastric Glands
T3 construct: from tissue; host or cells: gastric mucosal glands of male Hartley guinea pigs
T3 sequence (H0VZC5 1-426): T1 sequence (H0VZC5 1-426)
Protocol: Guinea pig gastric mucosal glands were prepared by the procedure of Berglingh and Obrink Acta Physiol. Scand. 96: 150 (1976) with a slight modification according to Praissman et al. C. J. Receptor Res. 3: (1983). Gastric mucosa from guinea pigs (300-500 g body weight, male Hartley) were washed thoroughly and minced with fine scissors in standard buffer consisting of the following: 130 mM NaCl, 12 mM NaHCO3, 3 mM NaH2 PO4, 3 mM Na2 HPO4, 3 mM K2 HPO4, 2 mM MgSO4, 1 mM CaCl2, 5 mM glucose and 4 mM L-glutamine, 25 mM HEPES at pH 7.4. The minced tissues were washed and then incubated in a 37° C. shaker bath for 40 minutes with the buffer containing 0.1% collagenase and 0.1% BSA and bubbled with 95% O2 and 5% CO2. The tissues were passed twice through a 5 ml glass syringe to liberate the gastric glands, and then filtered through 200 mesh nylon. The filtered glands were centrifuged at 270 g for 5 minutes and washed twice by resuspension and centrifugation.
The washed guinea pig gastric glands prepared as above were resuspended in 25 ml of standard buffer containing 0.25 mg/ml of bacitracin. For binding studies, to 220 μl of gastric glands in triplicate tubes, 10 μl of buffer (for total binding) or gastrin (1 μM final concentration, for nonspecific binding) or test compound and 10 μl of ^125 I-gastrin (NEN, 2200 Ci/mmole, 25 pM final) or ^3 H-pentagastrin (NEN 22 Ci/mmole, 1 nM final) were added. The tubes were aerated with 95% O2 and 5% CO2 and capped. The reaction mixtures after incubation at 25° C. for 30 minutes were filtered under reduced pressure on glass G/F B filters (Whatman) and immediately washed further with 4×4 ml of standard buffer containing 0.1% BSA. The radioactivity on the filters was measured using a Beckman gamma 5500 for ^125 I-gastrin or liquid scintillation counting for ^3 H-pentagastrin.

Structure (SMILES): Cc1ccc(NC(=O)NC2CCc3ccccc3N(CC(=O)N3CCN(C)CC3)C2=O)cc1 (centres unmarked) [Example 14, 1-Methyl-4-{[2,3,4,5-tetra-hydro-3-{[[(4-methylphenyl)amino}carbonyl]amino}-2-oxo-1H-1-benzazepin-1-yl]acetyl}piperazine]
- IC50 [1]: 77 µM
- IC50 [2]: 13000 nM

Structure (SMILES): O=C(O)CN1C(=O)C(NC(=O)Nc2cccc3ccccc23)CCc2ccccc21 (centres unmarked) [Example 9, 2,3,4,5-Tetrahydro-3-{[[(1-naphthalenyl)amino]carbonyl]amino}-2-oxo-1H-1-benzazepine-1-acetic acid]
- IC50 [2]: 20000 nM

Structure (SMILES): Cc1cccc(NC(=O)N[C@@H]2N=C(c3ccccc3)c3ccccc3N(C)C2=O)c1 [Compound B, (R)-N-(2,3-dihydro-1-methyl-2-oxo-5-phenyl-1H-1,4-benzodiazepin-3-yl)-N'-(3-methylphenyl)urea]
- Difference in time spent in the black and white side ([3]; 0.005 ug/kg): decreased the difference in time spent in the black and white side
- Preference for rearing in the black side ([3]; 0.05 ug/kg): abolished the preference for rearing in the black side
- Active dose range ([3]; black/white exploration test, mice): 0.005 to 0.05 µg/kg

Structure (SMILES): Cc1cccc(NC(=O)NC2CCc3ccccc3N(CC(=O)OC(C)(C)C)C2=O)c1 (centres unmarked) [Example 4]
- IC50 [2]: 12 nM

Structure (SMILES): Cc1cccc(NC(=O)NC2CCc3ccccc3N(CC(=O)N3CCN(C)CC3)C2=O)c1 (centres unmarked) [Example 7, 1-Methyl-4-{[2,3,4,5-tetrahydro-3-{[[(3-methylphenyl)amino]carbonyl]amino}-2-oxo-1H-1-benzazepin-1-yl]aceyl}piperazine]
- IC50 [4]: 610 nM
- IC50 [1]: 5 µM
- IC50 [2]: 970 nM

Structure (SMILES): COc1cccc(NC(=O)NC2CCc3ccccc3N(CC(=O)O)C2=O)c1 (centres unmarked) [Example 3]
- IC50 [4]: 3100 nM
- IC50 [1]: 8.6 µM
- IC50 [2]: 2100 nM

Structure (SMILES): O=C(Nc1cccc2ccccc12)NC1CCc2ccccc2N(CC(=O)N2CCCC2)C1=O (centres unmarked) [Example 11, 1-{[2,3,4,5-Tetrahydro-3-{[[(1-naphthalenyl)amino]carbonyl]amino}-2-oxo-1H-1-benzazepin-1-yl]acetyl}pyrrolidine]
- IC50 [4]: 460 nM
- IC50 [1]: 0.65 µM
- IC50 [2]: 1700 nM

Structure (SMILES): Cc1cccc(NC(=O)NC2CCc3ccccc3N(CC(=O)O)C2=O)c1 (centres unmarked) [Example 5, 2,3,4,5-Tetrahydro-3-{[[(3-methylphenyl)aminol]carbonyl]amino}-2-oxo-1H-1-benzazepine-1-acetic acid]
- IC50 [2]: 940 nM

Structure (SMILES): c1cnc2c(c1)ccc1cccnc12 [o-phenanthroline, reference compound]
- Effect on the 125I-CCK receptor binding assay [2]: no effect

Structure (SMILES): Cc1cccc(NC(=O)NC2CCc3ccccc3N(CC(=O)N3CCCC3)C2=O)c1 (centres unmarked) [Example 6, 1-{[2,3,4,5-Tetrahydro-3-{[[(3-methylphenyl)amino]carbonyl]amino}-2-oxo-1H-1-benzazepin-1-yl]acetyl}pyrrolidine]
- IC50 [2]: 80 nM

Structure (SMILES): CN1CCN(C(=O)CN2C(=O)C(NC(=O)Nc3cccc4ccccc34)CCc3ccccc32)CC1 (centres unmarked) [Example 10, 1-Methyl-4-{[2,3,4,5-tetra-hydro-3-{[[(1-naphthalenyl)amino]carbonyl]amino}-2-oxo-1H-1-benzazepin-1-yl]acetyl}piperazine]
- IC50 [2]: 32000 nM

Structure (SMILES): O=S(=O)(F)Cc1ccccc1 [phenylmethane sulfonyl fluoride, reference compound]
- Effect on the 125I-CCK receptor binding assay [2]: no effect

Structure (SMILES): COc1cccc(NC(=O)NC2CCc3ccccc3N(CC(=O)OC(C)(C)C)C2=O)c1 (centres unmarked) [Example 2]
- IC50 [2]: 14000 nM

Structure (SMILES): Cc1ccc(NC(=O)NC2CCc3ccccc3N(CC(=O)N3CCCC3)C2=O)cc1 (centres unmarked) [Example 13, 1-{[2,3,4,5-Tetrahydro-3-{[[(4-methylphenyl)amino]carbonyl]amino}-2-oxo-1H-1-benzazepin-1-yl]aceyl}pyrrolidine]
- IC50 [2]: 1600 nM
